Counter-ions that a name gives are not always drawn.

The nature of this data set: collision cross section in nitrogen (drift tube, single-field); higher = larger gas-phase ion size.
The mark [1] stands for this setting: ion type: [M+Na], ion source: ESI, ion mode: Positive.
The mark [2] stands for this setting: ion type: [M-H], ion source: ESI, ion mode: Negative.
[3] abbreviates: ion type: [M+H], ion source: APCI, ion mode: Positive.
[4] abbreviates: ion type: [M+H], ion source: ESI, ion mode: Positive.
Where [5] appears, read: ion source: APCI, ion mode: Positive, ion type: [M]+ (permanent cation).
[6] abbreviates: ion source: ESI, ion mode: Positive, ion type: [M]+ (permanent cation).
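Also: chemical standards at 10 µM analysed by drift tube IMS-QTOF MS in about 3.95 torr nitrogen, mean of duplicate injections differing ≤1%, mass error below 10 ppm.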

In the case of `CCCCOC(=O)CCCCCCCC(=O)OCCCC` [Dibutyl azelate], the “collision cross section in nitrogen” value reads like this: under setting [1], 191.2 Å²; under setting [2], 176 Å².
Consider `CCCCOP(=O)(CCCC)OCCCC` [Dibutyl butylphosphonate], for which, under setting [1], the “collision cross section in nitrogen” value is recorded as 181.8 Å².
Still for that read-out and setting: with `CCCCOC(=O)CCCCCCCCC(=O)OCCCC` [Dibutyl decanedioate] the figure was 193.5 Å².
With `Nc1c(Cl)cc([N+](=O)[O-])cc1Cl` [Dichloran], the “collision cross section in nitrogen” value under setting [2] stood at 131 Å².
The same measure, in the same setting: with `Oc1ccc(Cl)cc1Cc1cc(Cl)ccc1O` [Dichlorophen] the figure was 155.8 Å².
For the compound `CCOc1nc(F)cc2nc(S(=O)(=O)Nc3c(Cl)cccc3Cl)nn12` [Diclosulam], the “collision cross section in nitrogen” value runs as follows: under setting [3], 184.6 Å²; under setting [4], 183.5 Å²; under setting [1], 194 Å²; under setting [2], 183 Å².
Consider `COP(=O)(OC)O/C(C)=C/C(=O)N(C)C` [Dicrotophos], for which the “collision cross section in nitrogen” value runs as follows: under setting [3], 150.2 Å²; under setting [1], 153.2 Å².
As for `O=C(CC(C(=O)OC1CCCCC1)S(=O)(=O)O)OC1CCCCC1` (stereo not drawn) [Dicyclohexyl sodium sulfosuccinate], the “collision cross section in nitrogen” value under setting [2] was 188.4 Å².
With `C1CCC(NC2CCCCC2)CC1` [Dicyclohexylamine], the “collision cross section in nitrogen” value under setting [3] is on record as 147.6 Å² and the “collision cross section in nitrogen” value under setting [4] is listed as 146.9 Å².
In the case of `O=c1[nH]cnc2c1ncn2[C@H]1CC[C@@H](CO)O1` [Didanosine], the “collision cross section in nitrogen” value under setting [2] was 153.5 Å².
As to `CCCCCCCCCC[N+](C)(C)CCCCCCCCCC` [Didecyldimethylammonium chloride], the “collision cross section in nitrogen” value came out at 208.2 Å² under setting [5] and 209.1 Å² under setting [6].
Consider `CCCCCCCCCCCC[N+](C)(C)CCCCCCCCCCCC` [Didodecyldimethylammonium bromide], for which the “collision cross section in nitrogen” value under setting [6] is 225.6 Å².
On to `CCOc1ccc(NC(=O)OC(C)C)cc1OCC` [Diethofencarb], for which the “collision cross section in nitrogen” value under setting [1] worked out at 177.1 Å² and the “collision cross section in nitrogen” value under setting [2] turned out to be 171.9 Å².
Consider `CCOP(=O)(CN(CCO)CCO)OCC` [Diethyl (N,N-bis(2-hydroxyethyl)amino)methanephosphonate], for which the “collision cross section in nitrogen” value reads like this: under setting [3], 153.5 Å²; under setting [4], 153.9 Å²; under setting [1], 156.5 Å²; under setting [2], 157.5 Å².
In the case of `CCOC(=O)CCCCCCCCC(=O)OCC` [Diethyl decanedioate], the “collision cross section in nitrogen” value under setting [1] is recorded as 171.5 Å².
`CCOC=C(C(=O)OCC)C(=O)OCC` [Diethyl ethoxymethylenemalonate]: the “collision cross section in nitrogen” value under setting [1] amounted to 146.8 Å².
Take `CCOP(=O)(O)OCC` [Diethyl hydrogen phosphate]: under setting [2], the “collision cross section in nitrogen” value was found to be 129.2 Å².
For `O=C(OCCOCCOC(=O)c1ccccc1)c1ccccc1` [Diethylene glycol dibenzoate], the “collision cross section in nitrogen” value under setting [1] amounted to 180.8 Å².
`CCCCOCCOCCOC(C)=O` [Diethylene glycol monobutyl ether acetate]: the “collision cross section in nitrogen” value under setting [1] is on record as 150.1 Å².
Consider `CCc1c(C)cc(N)c(CC)c1N` [Diethylmethylbenzenediamine], for which the “collision cross section in nitrogen” value stood at 140.6 Å² under setting [3], 141.3 Å² under setting [4] and 145.3 Å² under setting [1].
`CCC(=O)Oc1ccc(/C(CC)=C(\CC)c2ccc(OC(=O)CC)cc2)cc1` [Diethylstilbestrol dipropionate]: under setting [1], the “collision cross section in nitrogen” value came out at 193.9 Å².
Turning to `CC/C(=C(/CC)c1ccc(O)cc1)c1ccc(O)cc1` [Diethylstilbestrol], under setting [2], the “collision cross section in nitrogen” value was 176.2 Å².
In the case of `Cn1c(-c2ccccc2)cc(-c2ccccc2)[n+]1C` [Difenzoquat metilsulfate], the “collision cross section in nitrogen” value is, setting by setting: under setting [5], 160 Å²; under setting [6], 160.8 Å².
Regarding `O=C(NC(=O)c1c(F)cccc1F)Nc1ccc(Cl)cc1` [Diflubenzuron], the “collision cross section in nitrogen” value by setting is: under setting [1], 177.4 Å²; under setting [2], 169.5 Å².
Regarding `O=C(Nc1ccc(F)cc1F)c1cccnc1Oc1cccc(C(F)(F)F)c1` [Diflufenican], the “collision cross section in nitrogen” value is, setting by setting: under setting [3], 184.7 Å²; under setting [4], 189.1 Å²; under setting [2], 180.6 Å².
`CC(=NNC(=O)Nc1cc(F)cc(F)c1)c1ncccc1C(=O)O` [Diflufenzopyr-sodium]: the “collision cross section in nitrogen” value under setting [1] was 182.3 Å².
Turning to `CC(=NNC(=O)Nc1cc(F)cc(F)c1)c1ncccc1C(=O)O` [Diflufenzopyr], the “collision cross section in nitrogen” value under setting [1] was determined as 181.6 Å².
For `COc1ccc(-n2nc(C(F)F)cc2-c2ccc(S(C)=O)cc2)cc1` (stereo not drawn) [Difpas-pyrazole], the “collision cross section in nitrogen” value is, setting by setting: under setting [3], 187.8 Å²; under setting [4], 187.4 Å².
On to `C[C@]12CC[C@H](O)C[C@H]1CC[C@@H]1[C@@H]2C[C@@H](O)[C@]2(C)[C@@H](C3=CC(=O)OC3)CC[C@]12O` [Digoxigenin], for which the “collision cross section in nitrogen” value under setting [1] worked out at 220.7 Å².
With `C[C@H]1O[C@@H](O[C@H]2[C@@H](O)C[C@H](O[C@H]3[C@@H](O)C[C@H](O[C@H]4CC[C@@]5(C)[C@H](CC[C@@H]6[C@@H]5C[C@@H](O)[C@]5(C)[C@@H](C7=CC(=O)OC7)CC[C@]65O)C4)O[C@@H]3C)O[C@@H]2C)C[C@H](O)[C@@H]1O` [Digoxin], the “collision cross section in nitrogen” value under setting [1] is 276.8 Å² and the “collision cross section in nitrogen” value under setting [2] amounted to 269.7 Å².
On to `CCCCCCCOC(=O)c1ccccc1C(=O)OCCCCCCC` [Diheptyl phthalate], for which, under setting [1], the “collision cross section in nitrogen” value was 209.9 Å².
With `CCCCCCOC(=O)CCCCC(=O)OCCCCCC` [Dihexyl hexanedioate], under setting [1], the “collision cross section in nitrogen” value is 202.5 Å².
As to `CCCCCCOC(=O)CCCCCCCC(=O)OCCCCCC` [Dihexyl nonanedioate], under setting [1], the “collision cross section in nitrogen” value is 210.8 Å².
On the same count and under the same terms, the result for `CCCCCCOC(=O)c1ccccc1C(=O)OCCCCCC` [Dihexyl phthalate] reads 202.6 Å².
Consider `Cc1ccc(S(=O)(=O)C(I)I)cc1` [Diiodomethyl 4-methylphenyl sulfone], for which, under setting [2], the “collision cross section in nitrogen” value was 151.9 Å².
`CC(C)COC(=O)CCCCC(=O)OCC(C)C` [Diisobutyl adipate]: the “collision cross section in nitrogen” value under setting [1] is recorded as 179.8 Å².
As for `CC(C)COC(=O)c1ccccc1C(=O)OCC(C)C` [Diisobutyl phthalate], the “collision cross section in nitrogen” value under setting [1] was 181.8 Å².
Turning to `CC(C)CCCCCCCOC(=O)c1ccccc1C(=O)OCCCCCCCC(C)C` [Diisodecyl phthalate], the “collision cross section in nitrogen” value under setting [1] is 226.5 Å².
Still for that read-out and setting: with `CC(C)CCCCCCOC(=O)CCCCC(=O)OCCCCCCC(C)C` [Diisononyl adipate] the figure was 219.4 Å².
In the case of `CC(C)CCCCCCOC(=O)C1CCCCC1C(=O)OCCCCCCC(C)C` (stereo not drawn) [Diisononyl cyclohexane-1,2-dicarboxylate], the “collision cross section in nitrogen” value under setting [1] worked out at 220.8 Å².
As to `CC(O)CNCC(C)O` (stereo not drawn) [Diisopropanolamine], the “collision cross section in nitrogen” value under setting [4] came out at 128.2 Å².
As to `CC(C)OC(=O)c1ccccc1C(=O)OC(C)C` [Diisopropyl phthalate], the “collision cross section in nitrogen” value under setting [1] stood at 169.9 Å².
In the case of `CC(C)(C)c1n[nH]c(=O)n(N)c1=O` [Diketometribuzin], the “collision cross section in nitrogen” value under setting [2] turned out to be 139.3 Å².
Turning to `COc1ccc([C@@H]2Sc3ccccc3N(CCN(C)C)C(=O)[C@@H]2OC(C)=O)cc1` [Diltiazem hydrochloride], the “collision cross section in nitrogen” value by setting is: under setting [4], 197.8 Å²; under setting [1], 203.2 Å².
Take `CCNc1nc(NC(C)C(C)C)nc(SC)n1` (stereo not drawn) [Dimethametryn]: the “collision cross section in nitrogen” value under setting [3] stood at 165.4 Å², the “collision cross section in nitrogen” value under setting [4] was found to be 165 Å² and the “collision cross section in nitrogen” value under setting [2] turned out to be 166.9 Å².
For `COCC(C)N(C(=O)CCl)c1c(C)csc1C` (stereo not drawn) [Dimethenamid], the “collision cross section in nitrogen” value is 155.2 Å² under setting [3], 155.9 Å² under setting [4] and 167.9 Å² under setting [1].
For `COc1ccc(C(=CC(=O)N2CCOCC2)c2ccc(Cl)cc2)cc1OC` [Dimethomorph], the “collision cross section in nitrogen” value runs as follows: under setting [3], 200.7 Å²; under setting [4], 199.2 Å²; under setting [1], 208 Å².
Consider `COC(=O)CCSCCC(=O)OC` [Dimethyl 3,3'-thiodipropionate], for which, under setting [1], the “collision cross section in nitrogen” value amounted to 146.5 Å².
Still for that read-out and setting: the result for `COP(=O)(CCC(=O)NCO)OC` [Dimethyl (3-((hydroxymethyl)amino)-3-oxopropyl)phosphonate] reads 144 Å²; that for `COC(=O)CCCCCCCC(=O)OC` [Dimethyl nonanedioate], 155.6 Å².
In the case of `COP(=O)(O)OC` [Dimethyl phosphate], under setting [2], the “collision cross section in nitrogen” value stood at 120.6 Å².
`Cc1cc(OC(=O)N(C)C)nn1C(=O)N(C)C` [Dimetilan]: the “collision cross section in nitrogen” value is listed as 152.5 Å² under setting [3], 153.1 Å² under setting [4] and 157.9 Å² under setting [1].
Turning to `CC(C)(C)C(O)/C(=C\c1ccc(Cl)cc1Cl)n1cncn1` (stereo not drawn) [Diniconazole], the “collision cross section in nitrogen” value under setting [3] came out at 177.9 Å² and the “collision cross section in nitrogen” value under setting [4] came to 177.1 Å².
As for `CCN(CC)c1c([N+](=O)[O-])cc(C(F)(F)F)c(N)c1[N+](=O)[O-]` [Dinitramine], under setting [2], the “collision cross section in nitrogen” value is given as 159.7 Å².
Take `CC(C)(C)c1cc([N+](=O)[O-])cc([N+](=O)[O-])c1O` [Dinoterb]: the “collision cross section in nitrogen” value under setting [2] was 150.1 Å².
Regarding `CCCCCCCCOC(=O)CCCCCCCCC(=O)OCCCCCCCC` [Dioctyl sebacate], the “collision cross section in nitrogen” value is given as 224.6 Å² under setting [4] and 225.4 Å² under setting [1].
In the case of `CNC(=O)Oc1ccccc1C1OCCO1` [Dioxacarb], the “collision cross section in nitrogen” value under setting [1] stood at 151.9 Å².
With `C=CC(=O)OCC(CO)(COCC(COC(=O)C=C)(COC(=O)C=C)COC(=O)C=C)COC(=O)C=C` [Dipentaerythritol pentaacrylate], the “collision cross section in nitrogen” value under setting [1] is reported as 217.9 Å².

Values taken from the supplement of paper PMC12317010.
